Laboratory results published in US9359451B2, “Methods and compositions for treating trauma-hemorrhage using estrogen and derivatives thereof” (THE UAB RESEARCH FOUNDATION, priority 2012, dated 2016).

What was measured:
injured brain = assay: Traumatic brain injury: FDG-PET/CT, diffusion tensor imaging and MRI edema; format: in vivo, rat; conditions: FIG. 43; day 1 and day 7 vs saline vehicle
Procedure: (§1) In a second experiment, the efficacy of E2-SO4 treatment for TBI in a lateral fluid percussion (LFP) model was examined. This involved 6 groups of rats (n=5/group). All rats received a craniectomy. Groups 1, 2, 4 and 5 received LFP injury. Groups 1 and 4 were treated with E2 (1 mg/kg) 1 hr post-injury, groups 2 and 5 were vehicle (Veh)-treated and groups 3 and 6 were sham. Groups 1-3 underwent intracranial pressure (ICP), cerebral perfusion pressure (CPP) and partial oxygen pressure (pbtO2) monitoring. Groups 4-6 underwent fludoexoyglucose (FDG)-PET/CT and diffusion tensor imaging (DTI) analysis on days 1 and 7 post-induction. Relative standard uptake values (SUV) of upper half of brain to central value, fractional anisotropy (FA) and apparent diffusion coefficient (ADC) maps were calculated.
Rats were either treated with E2 or a saline vehicle control, where treatment is administered 1 hour after injury. […] The former is the area of deranged nerves, while the latter constitutes intact nerves.

[1] = system: mean arterial blood pressure (MAP); assay: Mean arterial blood pressure spike after iv administration in hemorrhaged rats; format: in vivo, rat; conditions: for “spike” in mean arterial blood pressure (MAP) just after administration: rapid iv injection in ~1 min at MBO
Description: An additional practical matter to be resolved was removing or dampening the ever-present “spike” in mean arterial blood pressure (MAP) observed just after administration of EE-3-SO4, which was also observed with E2-CD and E2-SO4. Because this could be a threat to the hemorrhage patient by having this transient pressure rise destabilize and eject nascent hemostatic “plugs” in damaged vessels, a solution was developed for the potential problem. By giving the iv bolus of […] in a slightly longer interval over 5 min starting at MBO rather than a more rapid injection in ˜1 min (i.e., a “slow push”), the benefits of EE-3-SO4 remained while the MAP “spike” was removed. To determine the maximum reduction in the blood pressure spike studies were further conducted with a push over a 10 min period.

[2] = system: Sprague-Dawley adult male rats; assay: Traumatic brain injury (lateral fluid percussion): ICP, CPP and pbtO2 monitoring; format: in vivo, rat; conditions: for intracranial pressure vs untreated vehicle controls: FIG. 44, measured over a 120 min period
Procedure: Sprague-Dawley adult male rats were divided into 4 groups: vehicle, E2-SO4 (1 mg/kg), sham+vehicle and sham+E2-SO4; n=5/group. The TBI model was lateral fluid percussion injury (LFP), induced via a hydraulic pressure pulse to the anesthetized rat's exposed brain. This was introduced through a burr hole in the lateral skull prepared one day prior to LFP. A single iv dose of E2-SO4 or saline vehicle was administered 1 hr after LFP. Physiological parameters were measured 24 hr post-injury.
as §1
FIG. 48B is a plot of cerebral perfusion pressure, which is a derivative of mean arterial pressure less ICP. […] The X axis is shown for an extended 2 hours to confirm stability for the various probes used.
The clinical manifestation of edema after TBI can be seen as increased intracranial pressure, with lower brain perfusion pressure and reduced oxygen tension. […] FIG. 44 compares treatments for TBI with hormones, measured over a 120 min period to control the effects of the invasive probe on pressures. The treatments are progesterone (T+progesterone: magenta), progesterone plus E2-SO4 (T+E+P: brown), E2-SO4 (T+E2SO4: red) and EE-3-SO4 (T+EE-3SO4: yellow).

Male Sprague Dawley rats = assay: 6 hour survival after soft tissue trauma and 60% hemorrhage without resuscitation; format: in vivo, rat; conditions: for survival from 60% blood loss: FIG. 47, 6 hour interval after MBO, all saline vehicle controls died; for survival from 60% blood loss / survival percentage for 6 hr: no resuscitation
Procedure: Note that experimental conditions were sufficiently stringent that all saline vehicle control hemorrhaged rats died. The number of subject rats was vehicle control-20, E2-SO4-21, and EE3-SO4-20. Note that the time to begin the 6 hour interval starts after the maximum bleed out (MBO). It takes approximately 45 minutes to attain the MBO. Also please note that no resuscitation is given for the duration of the 6 hour test.
Survival studies with ethinyl 17α-estradiol-3-sulfate (EE3-SO4) in rats subjected to soft tissue trauma and 60% hemorrhage were performed as has been described for E2-SO4 and E2-cyclodextrin. Briefly, Male Sprague Dawley rats were anesthetized with isoflurane and received a 5 cm laparotomy. Cannulation was performed of 2 femoral arteries (one for bleeding and the one for blood pressure monitoring) and one femoral vein to administer drug or saline. Rats were bled to 62.9% total blood volume within 45 min with a mean arterial blood pressure of 40 mmHg achieved in 10 min and maintained at the pressure throughout the bleeding procedure. At the point of maximum bleed out (MBO), estrogen compounds were administered. Survival was monitored for 6 hours following MBO.
The optimum dose of EE-3-SO4 to promote rat survival for 6 hr was determined. The doses of 0.1 mg/kg (n=6), 0.3 mg/kg (n=6), 1.0 mg/kg (n=7) and 3.0 mg/kg (n=6) were used. The respective survival percentages were 16%, 50%, 87% and 50%, respectively (FIG. 41). Vehicle controls were matched for each group and the numbers of test rats were identical as well. No vehicle controls of any group survived for 6 hr (i.e., 100% death).

isolated vascular rings = assay: Vascular reactivity of isolated vascular rings in a physiological bath; parameters: species or system rat or pig
Procedure: Data to delineate the mechanism of action for EE-3-SO4 vis-à-vis effects on the cardiovascular system was acquired. While it is well known that estrogens act on the vascular system by a variety of mechanisms including vasorelaxation per se, specific confirmation of this fact for EE-3-SO4 was needed. […] Vessels are contracted by a variety of agents (i.e., endothelin-1, phenylephrine). The action(s) are measured with a force transducer and recorded digitally. […] (see FIG. 42).

Male SD rats = assay: Survival and blood pressure after trauma-hemorrhage with 60% blood loss and no fluid resuscitation; format: in vivo, rat; conditions: FIG. 21; trauma and major blood loss, crystalloid resuscitation after initial 3-hour interval; all untreated controls died within 3 hours
Procedure: 16 rats were subjected to 60% removal of blood volume, using the same protocol found in Example 5.
Furthermore, crystalloid fluid resuscitation was administered following an initial 3-hour interval after the trauma and major blood loss, and rats were followed for 7 days. It has been observed that rats which survive for the initial 3 hours uniformly go on to survive for prolonged period of time and were then sacrificed. The survival rate is 68% for estrogen-treated rats, while all untreated control rats have died within the initial 3-hour interval (see FIG. 21).
Although E2 administration after trauma-hemorrhage (T-H) and fluid resuscitation produces salutary effects on organ functions, it was not known if E2 has any beneficial effects after major blood loss in the absence of fluid resuscitation. Male SD rats ˜250 g) underwent T-H (tissue trauma, BP 40 mmHg in 10 min and maintained at that BP by further blood withdrawal until maximum bleed out (MBO, 60% of total blood volume) occurred (45:t5 min)). E2 i.v. (1 mg/Kg, 0.4 ml/Kg volume, i.e., 120 μL/300 g body weight) or vehicle (cyclodextrin, CD) was then infused. No additional fluid was given for 3 hours. If rats survived, they received Ringer's lactate, 4× the MBO volume. A custom-fabricated 31p coil was placed on the surface of the rat's liver after laparotomy in another group, and spectra acquired using 4.7T NMR spectroscopy via a 31p coil in real time before and during hemorrhagic shock. Shock increased phosphomonoester and Pi with a concomitant decrease in β-ATP in both groups.

Compound: C[C@]12CC[C@@H]3c4ccc(OS(=O)(=O)O)cc4CC[C@H]3[C@@H]1CC[C@@H]2OS(=O)(=O)O [E2-SO4, 17-β-estradiol 3, 17 disulfate]
- edema in the injured brain (injured brain): can reduce edema in the injured brain
- “spike” in mean arterial blood pressure (MAP) just after administration [1]: also observed
- intracranial pressure vs untreated vehicle controls [2]: greatly reduce the pressure
- pbtO2 (brain tissue oxygen partial pressure) ([2]; TBI (LFP), 1 mg/kg iv 1 hr after injury, 24 hr post-injury, vehicle 15.8±1.3, sham 39.6): 34.1±1.6 mmHg
- ICP (intracranial pressure) ([2]; TBI (LFP), 1 mg/kg iv 1 hr after injury, measured 24 hr post-injury, TBI vehicle 17.4±0.5, sham 4.7): 7±0.4 mmHg
- survival from 60% blood loss (Male Sprague Dawley rats): 66%

Compound: C#C[C@]1(O)CC[C@H]2[C@@H]3CCc4cc(OS(=O)(=O)O)ccc4[C@H]3CC[C@@]21C [EE-3-SO4, ethinyl 17α-estradiol-3-sulfate]
- edema in the injured brain (injured brain): can reduce edema in the injured brain
- reduction in the blood pressure spike with slow push ([1]; iv bolus over 5 min starting at MBO, no further benefit at 10 minutes): complete reduction at 5 minutes
- “spike” in mean arterial blood pressure (MAP) just after administration [1]: observed
- intracranial pressure vs untreated vehicle controls [2]: greatly reduce the pressure
- survival percentage for 6 hr (Male Sprague Dawley rats; 0.1 mg/kg at MBO, no vehicle controls survived): 16%
- survival percentage for 6 hr (Male Sprague Dawley rats; 0.3 mg/kg at MBO): 50%
- survival percentage for 6 hr (Male Sprague Dawley rats; 1.0 mg/kg at MBO): 87%
- survival percentage for 6 hr (Male Sprague Dawley rats; 3.0 mg/kg at MBO): 50%
- survival from 60% blood loss (Male Sprague Dawley rats): 80%
- survival from 60% blood loss (Male Sprague Dawley rats; listed as EE3-SO4): exhibits enhanced survival as compared to E2-sulfate
- optimum dose to promote rat survival for 6 hr (Male Sprague Dawley rats; doses 0.1, 0.3, 1.0 and 3.0 mg/kg tested): 1.0 mg/kg
- potency on a molar equivalent basis (isolated vascular rings; FIG. 42, compared with E2-SO4): more potent than E2-SO4
- range of doses with linear response in promoting vessel relaxation (isolated vascular rings; vessels contracted by endothelin-1 or phenylephrine, Kreb's buffer): 10 to 100000 nM

Compound: CN[C@@H](CCCNC(=N)N)C(=O)O [methyl arginine]
- antagonism of EE-3-SO4's vessel relaxation (isolated vascular rings; antagonist added to EE-3-SO4): relaxation can be inhibited

Compound: CC(=O)[C@H]1CC[C@H]2[C@@H]3CCC4=CC(=O)CC[C@]4(C)[C@H]3CC[C@]12C [progesterone]
- intracranial pressure vs untreated vehicle controls [2]: greatly reduce the pressure

Compound: estrogen
- survival rate (Male SD rats): 68%
